Measurements published in patent publication US20220304302A1, “MUCILAGE BASED PLANT PROTECTION PRODUCT AND METHOD THEREOF” (BOTANOHEALTH LTD., priority 2019, published 2022).

Tested on: Powdery mildew
Assay: Powdery mildew on whole Bell pepper plants
Assay type: in vivo
Details: 1000 spores, evaluated every 24 hours for 3 days
Experimental: Bell pepper plants where obtained at 4 weeks, replanted and acclimatized (22-28° C., 16 hour light). • ii. Plants where divided between treated plants: present formulation/active agent (thyme oil 0.1%)+Soap, negative control plants (no active fungicide) and a positive control (Penconazole, Ophir 2000). The plants were treated on 4 leafs, at 6 places on each leaf, with a solution containing 1000 spores. Infected plants were preserved in a moist environment. • iii. Fungi infestation was evaluated every 24 hours for 3 days: • i. Treated: 55% of leafs where infected; • ii. Negative control: 97.5 of leafs where infected • iii. Positive control: 40% of leafs where infected

## CCCC(Cn1cncn1)c1ccc(Cl)cc1Cl (stereo not shown) [Penconazole]
  leafs infected: 40%
